Measurements as given in PubChem BioAssay (NCI).
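Each compound was tested at five concentrations against cells in 96-well plates for 48 hours. Abbreviation: GI50, concentration required for 50% inhibition of growth. At the TGI there is no net growth.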

Key:
Assay in all cases: growth of human tumour cells (NCI), 48 h
KM12 colon = test system: KM12 colon
HOP-62 NSCLC = test system: HOP-62 NSCLC
SN12C renal = test system: SN12C renal
SK-MEL-28 melanoma = test system: SK-MEL-28 melanoma
HT29 colon = test system: HT29 colon
SNB-75 CNS = test system: SNB-75 CNS
NCI/ADR-RES ovarian = test system: NCI/ADR-RES ovarian
CAKI-1 renal = test system: CAKI-1 renal
NCI-H23 lung = test system: NCI-H23 lung
NCI-H522 lung = test system: NCI-H522 lung
UACC-257 melanoma = test system: UACC-257 melanoma
HL-60(TB) leukemia = test system: HL-60(TB) leukemia
A549 NSCLC = test system: A549 NSCLC
NCI-H460 lung = test system: NCI-H460 lung
BT-549 breast = test system: BT-549 breast
OVCAR-3 ovarian = test system: OVCAR-3 ovarian
LOX IMVI melanoma = test system: LOX IMVI melanoma
OVCAR-4 ovarian = test system: OVCAR-4 ovarian
SNB-19 CNS = test system: SNB-19 CNS
SR leukemia = test system: SR leukemia
HCC-2998 colon = test system: HCC-2998 colon
EKVX NSCLC = test system: EKVX NSCLC
SW-620 colon = test system: SW-620 colon
SK-MEL-5 melanoma = test system: SK-MEL-5 melanoma
CCRF-CEM leukemia = test system: CCRF-CEM leukemia
786-0 renal = test system: 786-0 renal
HCT-116 colon = test system: HCT-116 colon
UO-31 renal = test system: UO-31 renal
SF-268 CNS = test system: SF-268 CNS

`Nc1nonc1-c1nc2cnccc2n1C1CCCCC1` showed a GI50 (KM12 colon) of 9.16 µM, a TGI (KM12 colon) of over 25 µM and a GI50 (HOP-62 NSCLC) of over 25 µM. The TGI (HOP-62 NSCLC) was over 25 µM, the GI50 (SN12C renal) was 12.5 µM and the TGI (SN12C renal) was over 25 µM. The GI50 (SK-MEL-28 melanoma) was over 25 µM, the TGI (SK-MEL-28 melanoma) was over 25 µM and the GI50 (HT29 colon) was 9.87 µM. The TGI (HT29 colon) was over 25 µM, the GI50 (SNB-75 CNS) was 2.42 µM and the TGI (SNB-75 CNS) was over 25 µM. It also gave a GI50 (NCI/ADR-RES ovarian) of over 22.1 µM, a TGI (NCI/ADR-RES ovarian) of over 25 µM and a GI50 (CAKI-1 renal) of 11.6 µM. It also gave a TGI (CAKI-1 renal) of over 25 µM, a GI50 (NCI-H23 lung) of over 18.5 µM and a TGI (NCI-H23 lung) of over 25 µM. The GI50 (NCI-H522 lung) was 6.01 µM, the TGI (NCI-H522 lung) was 23.4 µM and the GI50 (UACC-257 melanoma) was over 25 µM. It also gave a TGI (UACC-257 melanoma) of over 25 µM, a GI50 (HL-60(TB) leukemia) of 7.25 µM and a TGI (HL-60(TB) leukemia) of 19.6 µM. It also gave a GI50 (A549 NSCLC) of 13 µM, a TGI (A549 NSCLC) of over 25 µM and a GI50 (NCI-H460 lung) of 10.3 µM. The TGI (NCI-H460 lung) was over 25 µM, the GI50 (BT-549 breast) was 6.29 µM and the TGI (BT-549 breast) was over 25 µM. The GI50 (OVCAR-3 ovarian) was 10.7 µM, the TGI (OVCAR-3 ovarian) was over 25 µM and the GI50 (LOX IMVI melanoma) was 16.3 µM. It also gave a TGI (LOX IMVI melanoma) of over 25 µM, a GI50 (OVCAR-4 ovarian) of over 16.6 µM and a TGI (OVCAR-4 ovarian) of over 25 µM. It also gave a GI50 (SNB-19 CNS) of over 25 µM, a TGI (SNB-19 CNS) of over 25 µM and a GI50 (SR leukemia) of 7.35 µM. For the same compound, the TGI (SR leukemia) was over 25 µM, the GI50 (HCC-2998 colon) was over 25 µM and the TGI (HCC-2998 colon) was over 25 µM. The GI50 (EKVX NSCLC) was over 20.3 µM, the TGI (EKVX NSCLC) was over 25 µM and the GI50 (SW-620 colon) was 14 µM. The TGI (SW-620 colon) was over 25 µM, the GI50 (SK-MEL-5 melanoma) was 6.04 µM and the TGI (SK-MEL-5 melanoma) was over 19.2 µM. It also gave a GI50 (CCRF-CEM leukemia) of 7.84 µM, a TGI (CCRF-CEM leukemia) of over 25 µM and a GI50 (786-0 renal) of 11.1 µM. The TGI (786-0 renal) was over 25 µM, the GI50 (HCT-116 colon) was 7.45 µM and the TGI (HCT-116 colon) was over 25 µM. For the same compound, the GI50 (UO-31 renal) was over 24 µM, the TGI (UO-31 renal) was over 25 µM and the GI50 (SF-268 CNS) was over 25 µM.
